From US20240101576A1, “HETEROCYCLIC INHIBITORS OF EGFR AND/OR HER2, FOR USE IN THE TREATMENT OF CANCER” (Scorpion Therapeutics, Inc., priority 2020, published 2024)

Legend:
Format in all cases: cell-based
[1] = molecular target: T1, EGFR exon 20 NPG Ins D770_N771 (Ba/F3 cells) (Homo sapiens, UniProt P00533, INS770NPG); test: Inhibitor activity on EGFR-dependent cell growth (CellTiter-Glo, 72 h), Ba/F3 EGFR exon 20 NPG Ins; settings: read-out: BaF3 NPG IC50
T1 construct: expressed in transfected cells; host or cells: Ba/F3 (murine pro-B cells), retroviral transduction, puromycin selection, IL3-independent pool
T1 sequence (P00533 with tags, fused parts or gaps INS770NPG): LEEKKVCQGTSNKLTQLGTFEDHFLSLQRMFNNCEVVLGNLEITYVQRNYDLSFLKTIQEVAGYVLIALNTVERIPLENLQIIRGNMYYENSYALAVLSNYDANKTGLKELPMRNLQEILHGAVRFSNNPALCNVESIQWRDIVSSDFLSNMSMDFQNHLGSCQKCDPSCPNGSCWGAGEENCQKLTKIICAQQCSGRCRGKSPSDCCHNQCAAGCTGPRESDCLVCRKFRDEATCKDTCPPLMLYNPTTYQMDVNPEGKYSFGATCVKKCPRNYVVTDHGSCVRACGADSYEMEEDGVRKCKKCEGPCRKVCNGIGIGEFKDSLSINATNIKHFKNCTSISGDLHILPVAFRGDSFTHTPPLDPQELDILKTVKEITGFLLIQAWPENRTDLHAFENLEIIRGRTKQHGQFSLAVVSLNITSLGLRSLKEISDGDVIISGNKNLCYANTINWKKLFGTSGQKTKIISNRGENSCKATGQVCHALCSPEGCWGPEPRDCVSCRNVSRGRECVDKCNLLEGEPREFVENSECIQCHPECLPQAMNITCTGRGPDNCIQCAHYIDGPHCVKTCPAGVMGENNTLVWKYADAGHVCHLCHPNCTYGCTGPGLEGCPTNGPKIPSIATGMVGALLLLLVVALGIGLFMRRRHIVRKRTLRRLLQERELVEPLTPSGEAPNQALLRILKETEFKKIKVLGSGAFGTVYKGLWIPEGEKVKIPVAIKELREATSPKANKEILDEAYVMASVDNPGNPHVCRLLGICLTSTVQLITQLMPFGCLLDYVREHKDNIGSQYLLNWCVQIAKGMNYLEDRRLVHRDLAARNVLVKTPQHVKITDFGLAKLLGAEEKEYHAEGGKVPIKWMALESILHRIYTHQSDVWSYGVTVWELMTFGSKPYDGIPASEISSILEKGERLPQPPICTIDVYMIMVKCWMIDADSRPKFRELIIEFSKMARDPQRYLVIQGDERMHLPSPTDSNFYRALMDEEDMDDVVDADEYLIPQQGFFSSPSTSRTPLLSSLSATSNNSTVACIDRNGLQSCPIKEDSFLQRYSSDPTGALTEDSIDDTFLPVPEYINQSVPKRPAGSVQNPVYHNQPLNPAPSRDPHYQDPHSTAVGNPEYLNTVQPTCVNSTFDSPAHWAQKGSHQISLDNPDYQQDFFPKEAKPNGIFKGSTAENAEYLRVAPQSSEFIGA
In short: (§1)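 IC50s derive from a sigmoidal dose–response fit of CellTiter-Glo signal. The signal was normalised between […]-treated cells and cell-free medium. Ba/F3 mutant-EGFR cells, seeded at 400–800/well depending on the line, had 72 h of exposure to a 10-point, 3-fold compound series.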

EGFR WT (Ba/F3 cells) = molecular target: T2, EGFR WT (Ba/F3 cells) (Homo sapiens, UniProt P00533); test: Inhibitor activity on EGFR-dependent cell growth (CellTiter-Glo, 72 h), Ba/F3 EGFR WT; settings: read-out: BaF3 WT IC50
T2 construct: expressed in transfected cells; host or cells: Ba/F3 (murine pro-B cells), retroviral transduction, puromycin selection, maintained with EGF
T2 sequence (P00533 25-1210): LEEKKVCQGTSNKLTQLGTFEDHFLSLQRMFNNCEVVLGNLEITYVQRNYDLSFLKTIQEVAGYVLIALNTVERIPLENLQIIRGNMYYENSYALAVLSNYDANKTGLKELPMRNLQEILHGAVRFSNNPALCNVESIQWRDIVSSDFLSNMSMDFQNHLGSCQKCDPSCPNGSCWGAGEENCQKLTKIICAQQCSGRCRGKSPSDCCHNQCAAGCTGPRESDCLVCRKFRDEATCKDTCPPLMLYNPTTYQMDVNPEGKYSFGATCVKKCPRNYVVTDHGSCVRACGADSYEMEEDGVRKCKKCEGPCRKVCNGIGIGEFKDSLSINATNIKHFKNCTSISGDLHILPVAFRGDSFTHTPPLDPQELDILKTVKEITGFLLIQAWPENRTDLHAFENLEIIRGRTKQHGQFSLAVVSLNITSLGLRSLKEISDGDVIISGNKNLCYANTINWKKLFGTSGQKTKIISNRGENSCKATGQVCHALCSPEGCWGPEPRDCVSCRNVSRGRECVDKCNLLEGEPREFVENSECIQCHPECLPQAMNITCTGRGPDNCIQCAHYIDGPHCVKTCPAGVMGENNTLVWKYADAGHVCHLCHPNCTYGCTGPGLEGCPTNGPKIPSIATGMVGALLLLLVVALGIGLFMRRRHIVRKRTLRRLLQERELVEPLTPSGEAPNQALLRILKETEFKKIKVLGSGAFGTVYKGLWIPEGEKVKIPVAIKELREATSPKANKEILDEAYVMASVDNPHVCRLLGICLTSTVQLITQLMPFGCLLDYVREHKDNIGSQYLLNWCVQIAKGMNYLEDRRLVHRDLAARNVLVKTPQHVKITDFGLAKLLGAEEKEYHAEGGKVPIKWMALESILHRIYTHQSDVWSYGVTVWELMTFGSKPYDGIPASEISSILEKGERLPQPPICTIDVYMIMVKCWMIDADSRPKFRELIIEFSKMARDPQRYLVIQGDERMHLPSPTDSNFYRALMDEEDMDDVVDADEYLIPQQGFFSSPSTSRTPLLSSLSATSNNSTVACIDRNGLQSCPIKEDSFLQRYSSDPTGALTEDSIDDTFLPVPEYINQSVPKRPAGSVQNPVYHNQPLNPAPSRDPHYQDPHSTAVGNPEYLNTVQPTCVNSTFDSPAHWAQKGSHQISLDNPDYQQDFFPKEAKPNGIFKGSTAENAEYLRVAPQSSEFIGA
In short: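 This growth assay used Ba/F3 cells that depend on wild-type EGFR and are kept in EGF without IL3. Compounds were made up as 10 mM DMSO stocks and diluted 3-fold over 10 points. 120 nL went onto 600 cells/well. After 72 hours, 40 μL CellTiter-Glo was added and luminescence read on EnVision after 30 min.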

EGFR (CUTO14 cells) = EGFR (CUTO14 cells) (Homo sapiens, UniProt P00533); test: Inhibitor activity on EGFR phosphorylation (pEGFR AlphaLISA, 2 h), CUTO14 cells
Source text: Example B. Inhibitor Activity on EGFR phosphorylation (pEGFR)
EGFR mutant Ba/F3 cells were generated by transduction with retrovirus containing vectors expressing EGFR L858R, EGFR exon 19del, EGFR L858R/C797S, EGFR exon 20 NPG Ins D770_N771, EGFR exon 20 ASV Ins V769_D770, or EGFR exon 20 SVD Ins D770_N771 genes along with a puromycin selection marker. Transduced cells are selected with puromycin for 7 days and are then be transferred into culture media without Interleukin 3 (IL3). Surviving cells are confirmed to express EGFR by Western blot and maintained as a pool. CUTO14 cells were obtained from Dr. Robert C. Doebele at the University of Colorado. The IC50 date are included in Table 6 and Table 7.
(§2) 1.1 Cells are harvested from flask into cell culture medium and the cell number counted.
1.2 Cells are diluted with culture medium to the desired density and 40 μL of cell suspension is added into each well of 384-well cell culture plate and the seeding density is 50K cells/well (Ba/F3) or 12.5K cells/well (CUTO14).
(§3) 2 Compound Preparation and Treatment
(§4) 2.1 Test compounds are dissolved to 10 mM in a DMSO stock solution. 45 μL of stock solution is transferred to a 384 polypropylene plate (pp-plate). Perform 3-fold, 10-point dilution via transferring 15 μL compound into 30 μL DMSO using a TECAN (EVO200) liquid handler.
(§5) 2.2 Spin plates at room temperature at 1,000 RPM for 1 minute.
2.3 Transfer 5 nL of diluted compound from compound source plate into the cell plate.
2.4 After compound treatment for 2 hours, perform pEGFR detection by AlphaLISA for compound treatment plates as described in “Detection” section.
3 Detection by pEGFR AlphaLISA (Perkin-Elmer)
3.1 Plates are removed from incubators and equilibrated at room temperature for 10 minutes, and media was removed
3.2 10 μL of lysis buffer is added and plates shaken at 600 rpm for 1 hr.
3.3 Prepare acceptor mix just before use and dispense 5 μL of acceptor mix to all the wells. Shake 350 rpm for Ihr in the dark
3.4 Prepare donor mix under low light conditions prior to use. Dispense 5 μL of donor mix to all the wells. Mix well on the shaker, seal and wrap in aluminum foil and incubate 1.5 hrs at room temperature in the dark
3.5 Transfer 18.5 μL mixture to OptiPlate 384, and read using an Envision. The IC50 date were included in Table 6 and Table 7.

[2] = molecular target: T3, EGFR exon 20 SVD Ins D770_N771 (Ba/F3 cells) (Homo sapiens, UniProt P00533, INS770SVD); test: Inhibitor activity on EGFR-dependent cell growth (CellTiter-Glo, 72 h), Ba/F3 EGFR exon 20 SVD Ins; settings: read-out: BaF3 SVD IC50
T3 construct: expressed in transfected cells; host or cells: Ba/F3 (murine pro-B cells), retroviral transduction, puromycin selection, IL3-independent pool
T3 sequence (P00533 with tags, fused parts or gaps INS770SVD): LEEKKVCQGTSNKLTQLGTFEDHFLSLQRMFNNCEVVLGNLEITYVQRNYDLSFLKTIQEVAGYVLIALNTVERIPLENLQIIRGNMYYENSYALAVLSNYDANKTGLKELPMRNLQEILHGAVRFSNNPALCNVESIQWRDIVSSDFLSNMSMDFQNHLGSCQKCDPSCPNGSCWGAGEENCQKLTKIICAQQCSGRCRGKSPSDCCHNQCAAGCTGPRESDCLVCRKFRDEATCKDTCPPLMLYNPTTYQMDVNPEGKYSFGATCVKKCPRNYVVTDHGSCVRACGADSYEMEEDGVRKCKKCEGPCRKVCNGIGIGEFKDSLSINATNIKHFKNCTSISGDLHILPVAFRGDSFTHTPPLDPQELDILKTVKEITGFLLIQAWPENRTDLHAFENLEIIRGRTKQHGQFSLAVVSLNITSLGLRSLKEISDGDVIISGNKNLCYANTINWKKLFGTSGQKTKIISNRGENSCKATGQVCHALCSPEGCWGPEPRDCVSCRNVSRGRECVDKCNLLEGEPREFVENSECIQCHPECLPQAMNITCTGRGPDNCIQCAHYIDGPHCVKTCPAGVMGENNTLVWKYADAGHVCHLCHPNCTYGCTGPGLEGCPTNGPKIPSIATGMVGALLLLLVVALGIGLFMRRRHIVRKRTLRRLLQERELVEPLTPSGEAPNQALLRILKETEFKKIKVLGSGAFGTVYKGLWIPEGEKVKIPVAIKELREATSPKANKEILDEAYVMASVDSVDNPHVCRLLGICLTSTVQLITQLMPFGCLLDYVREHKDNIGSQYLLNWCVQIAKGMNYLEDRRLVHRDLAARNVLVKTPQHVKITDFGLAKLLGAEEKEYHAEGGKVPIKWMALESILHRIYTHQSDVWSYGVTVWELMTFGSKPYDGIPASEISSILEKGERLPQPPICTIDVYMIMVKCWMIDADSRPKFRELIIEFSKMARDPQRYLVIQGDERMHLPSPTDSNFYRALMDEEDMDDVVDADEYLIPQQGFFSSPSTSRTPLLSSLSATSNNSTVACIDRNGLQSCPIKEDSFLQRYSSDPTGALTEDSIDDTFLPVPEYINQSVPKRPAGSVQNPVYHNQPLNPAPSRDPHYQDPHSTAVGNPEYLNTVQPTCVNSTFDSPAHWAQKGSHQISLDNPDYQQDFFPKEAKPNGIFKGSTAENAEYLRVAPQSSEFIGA
In short: as §1

[3] = molecular target: T4, EGFR exon 20 ASV Ins V769_D770 (Ba/F3 cells) (Homo sapiens, UniProt P00533, INS769ASV); test: Inhibitor activity on EGFR-dependent cell growth (CellTiter-Glo, 72 h), Ba/F3 EGFR exon 20 ASV Ins; settings: read-out: BaF3 ASV IC50
T4 construct: expressed in transfected cells; host or cells: Ba/F3 (murine pro-B cells), retroviral transduction, puromycin selection, IL3-independent pool
T4 sequence (P00533 with tags, fused parts or gaps INS769ASV): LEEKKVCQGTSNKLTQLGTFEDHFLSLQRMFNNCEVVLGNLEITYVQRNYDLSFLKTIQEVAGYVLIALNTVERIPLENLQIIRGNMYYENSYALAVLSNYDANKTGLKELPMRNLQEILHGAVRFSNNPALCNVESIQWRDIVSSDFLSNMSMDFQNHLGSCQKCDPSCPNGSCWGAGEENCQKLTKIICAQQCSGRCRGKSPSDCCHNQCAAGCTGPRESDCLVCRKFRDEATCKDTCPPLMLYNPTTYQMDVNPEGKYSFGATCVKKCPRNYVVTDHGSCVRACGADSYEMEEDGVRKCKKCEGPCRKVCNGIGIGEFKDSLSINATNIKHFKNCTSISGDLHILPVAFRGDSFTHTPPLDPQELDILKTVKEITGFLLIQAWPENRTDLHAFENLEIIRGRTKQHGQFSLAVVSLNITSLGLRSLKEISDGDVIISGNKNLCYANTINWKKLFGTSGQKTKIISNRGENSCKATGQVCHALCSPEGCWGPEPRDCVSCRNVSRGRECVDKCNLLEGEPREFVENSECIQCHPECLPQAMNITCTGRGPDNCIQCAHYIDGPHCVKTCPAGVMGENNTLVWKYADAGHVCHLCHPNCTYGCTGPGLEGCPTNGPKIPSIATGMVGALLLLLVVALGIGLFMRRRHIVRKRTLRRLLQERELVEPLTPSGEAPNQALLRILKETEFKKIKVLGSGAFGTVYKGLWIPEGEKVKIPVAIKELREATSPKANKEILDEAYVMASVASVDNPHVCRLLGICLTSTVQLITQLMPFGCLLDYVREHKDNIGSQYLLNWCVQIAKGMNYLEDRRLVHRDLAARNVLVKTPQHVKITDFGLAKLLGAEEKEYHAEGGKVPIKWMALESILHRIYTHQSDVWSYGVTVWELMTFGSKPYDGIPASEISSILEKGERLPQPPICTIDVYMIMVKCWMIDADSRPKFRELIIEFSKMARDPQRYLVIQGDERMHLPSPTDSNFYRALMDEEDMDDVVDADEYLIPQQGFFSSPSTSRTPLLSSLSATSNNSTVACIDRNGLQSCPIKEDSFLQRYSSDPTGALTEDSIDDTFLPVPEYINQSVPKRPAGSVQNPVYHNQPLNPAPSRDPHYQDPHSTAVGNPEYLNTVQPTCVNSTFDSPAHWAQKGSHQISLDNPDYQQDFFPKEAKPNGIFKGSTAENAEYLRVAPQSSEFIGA
In short: as §1

[4] = molecular target: T1, EGFR exon 20 NPG Ins D770_N771 (Ba/F3 cells); test: Inhibitor activity on EGFR phosphorylation (pEGFR AlphaLISA, 2 h), Ba/F3 EGFR exon 20 NPG Ins
In short: (§6)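 IL3-independent Ba/F3 cells transduced with mutant EGFR (50K/well) or CUTO14 cells (12.5K/well) were treated 2 h with 10-point, 3-fold compound dilutions. Phospho-EGFR in lysates was measured by AlphaLISA to derive IC50.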

[5] = molecular target: EGFR exon 19del (Ba/F3 cells) (Homo sapiens, UniProt P00533); test: Inhibitor activity on EGFR-dependent cell growth (CellTiter-Glo, 72 h), Ba/F3 EGFR exon 19del; settings: Ba/F3 EGFR exon 19del cell growth, read-out: BaF3 Del19 IC50
Source text: (§7) Example A. Inhibitor Activity on EGFR-Dependent Cell Growth
(§8) Cell lines are generated by transducing Ba/F3 cells with retroviruses containing vectors with EGFR WT, EGFR L858R, EGFR exon 19del, EGFR L858R/C797S, EGFR exon 20 NPG Ins D770_N771, EGFR exon 20 ASV Ins V769_D770, EGFR exon 20 SVD Ins D770_N771, or EGFR exon 20 FQEA Ins A763_V764 genes and a puromycin selection marker. Transduced cells are selected with puromycin for 7 days and are then be transferred into culture media without Interleukin 3 (IL3). EGFR WT cells are maintained with supplemental EGF. Surviving cells are confirmed to express EGFR by Western blot and maintained as a pool. The IC50 date were included in Table 6 and Table 7.
as §2
(§9) 1.2 Cells are diluted with culture medium to the desired density and 40 μL of cell suspension is added into each well of 384-well cell culture plate and the seeding density is 800 (FQEA, exon 19del), 600 (WT, NPG, L858R/C797S), or 400 (ASV, SVD, L858R) cells/well.
as §3, §4, §5
(§10) 2.3 Transfer 120 nL of diluted compound from compound source plate into the cell plate.
(§11) 2.4 After compound treatment for 72 hours, perform CTG detection for compound treatment plates as described in “Detection” section.
(§12) 3.1 Plates are removed from incubators and equilibrated at room temperature for 15 minutes.
(§13) 3.2 Thaw the CellTiter Glo reagents and allow to equilibrate to room temperature before the experiment.
(§14) 3.3 Add 40 μL of CellTiter-Glo reagent into each well (at 1:1 to culture medium). Then place the plates at room temperature for 30 min followed by reading on EnVision.
(§15) 4.1 Inhibition activity is calculated following the formula below:
(§16) % Inhibition=100×(LumHC−LumSample)/(LumHC−LumLC) • where HC is obtained from cells treated with 0.1% DMSO only; and LC is obtained from culture medium only.
(§17) 4.2 2. Calculate the IC50 by fitting the Curve using Xlfit (v5.3.1.3), equation 201.
(§18) Y=Bottom+(Top−Bottom)/(1+10^((Log IC50−X)*HillSlope))

EGFR L858R (Ba/F3 cells) = molecular target: T5, EGFR L858R (Ba/F3 cells) (Homo sapiens, UniProt P00533, L858R); test: Inhibitor activity on EGFR-dependent cell growth (CellTiter-Glo, 72 h), Ba/F3 EGFR L858R; settings: read-out: BaF3 L858R IC50
T5 construct: expressed in transfected cells; host or cells: Ba/F3 (murine pro-B cells), retroviral transduction, puromycin selection, IL3-independent pool
Source text: as §7, §8, §2, §9, §3, §4, §5, §10, §11, §12, §13, §14, §15, §16, §17, §18

[6] = molecular target: T4, EGFR exon 20 ASV Ins V769_D770 (Ba/F3 cells); test: Inhibitor activity on EGFR phosphorylation (pEGFR AlphaLISA, 2 h), Ba/F3 EGFR exon 20 ASV Ins; settings: EGFR phosphorylation, AlphaLISA, 2 hours; read-out: ASV IC50 (pEGFR)
In short: as §6

[7] = molecular target: T6, EGFR exon 20 FQEA Ins A763_V764 (Ba/F3 cells) (Homo sapiens, UniProt P00533, INS763FQEA); test: Inhibitor activity on EGFR-dependent cell growth (CellTiter-Glo, 72 h), Ba/F3 EGFR exon 20 FQEA Ins; settings: read-out: BaF3 FQEA IC50
T6 construct: expressed in transfected cells; host or cells: Ba/F3 (murine pro-B cells), retroviral transduction, puromycin selection, IL3-independent pool
In short: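 Steps: seed Ba/F3 EGFR-mutant pools (800 cells/well FQEA and exon 19del; 600 L858R/C797S; 400 L858R). Add 120 nL of serially diluted compound and incubate 72 h. Equilibrate to room temperature, add CellTiter-Glo and read after 30 min. Fit IC50.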

SMILES	IC50 [1]	IC50 (EGFR WT (Ba/F3 cells))	IC50 (EGFR (CUTO14 cells))	IC50 [2]	IC50 [3]	IC50 [4]	IC50 [5]	IC50 (EGFR L858R (Ba/F3 cells))	IC50 [6]	IC50 [7]
COc1c(Cl)cccc1Nc1c(-c2ccnc(C)n2)[nH]c2c1C(=O)NC[C@@H]2C[C@@H]1COCCO1 [Compound 552, (7S)-3-[(3-chloro-2-methoxyphenyl)amino]-7-[(2R)-1,4-dioxan-2-ylmethyl]-2-(2-methylpyrimidin-4-yl)-1H,5H,6H,7H-pyrrolo[3,2-c]pyridin-4-one]	< 100 nM	> 1000 nM	< 100 nM	–	–	–	–	–	–	–
COc1c(Cl)cccc1Nc1c(-c2ccncc2F)[nH]c2c1C(=O)NC[C@@H]2C[C@@H]1CN(C)CCO1 [compound 790]	< 100 nM	100 to 1000 nM	< 100 nM	< 100 nM	< 100 nM	–	–	–	–	–
COc1c(Cl)cccc1Nc1c(-c2ccncc2)[nH]c2c1C(=O)NCC2C[C@@H]1CN(C)CCO1 (single isomer, unassigned) [Compound 646]	> 1000 nM	> 1000 nM	< 100 nM	> 1000 nM	> 1000 nM	–	–	–	–	–
COc1c(Cl)cccc1Nc1c(-c2ccncc2F)[nH]c2c1C(=O)NCC2C[C@@H]1CO[C@@H](CN(C)C)CO1 (single isomer, unassigned) [Compound 562, (7R*)-3-[(3-chloro-2-methoxyphenyl)amino]-7-{[(2R,5S)-5-[(dimethylamino)methyl]-1,4-dioxan-2-yl]methyl}-2-(3-fluoropyridin-4-yl)-1H,5H,6H,7H-pyrrolo[3,2-c]pyridin-4-one]	< 100 nM	100 to 1000 nM	< 100 nM	< 100 nM	< 100 nM	–	–	–	–	–
C=CC(=O)N1CCC2(CC1)CNC(=O)c1c2[nH]c(-c2ccnc(C)n2)c1Nc1cccc(F)c1OC [compound 644]	< 100 nM	< 100 nM	< 100 nM	< 100 nM	< 100 nM	–	–	–	–	–
C=CC(=O)N1CCC2(CC1)CNC(=O)c1c2[nH]c(-c2ccnc(C)n2)c1Nc1cc(F)cc(F)c1OC [compound 641]	< 100 nM	100 to 1000 nM	< 100 nM	< 100 nM	< 100 nM	–	–	–	–	–
COc1c(F)cccc1Nc1c(-c2ccncn2)[nH]c2c1C(=O)NCC21CCN(C(=O)/C=C/CN(C)C)CC1 [compound 650]	100 to 1000 nM	> 1000 nM	< 100 nM	100 to 1000 nM	100 to 1000 nM	–	–	–	–	–
COc1c(F)cccc1Nc1c(-c2ccnc(Nc3cnn(C)n3)n2)[nH]c2c1C(=O)NCC2 [compound 593, 3-[(3-fluoro-2-methoxyphenyl)amino]-2-{2-[(2-methyl-1,2,3-triazol-4-yl)amino]pyrimidin-4-yl}-1H,5H,6H,7H-pyrrolo[3,2-c]pyridin-4-one]	< 100 nM	100 to 1000 nM	< 100 nM	< 100 nM	< 100 nM	–	–	–	–	–
COc1c(Cl)cccc1Nc1c(-c2ccnc(Nc3cnn(C)n3)n2)[nH]c2c1C(=O)NCC2 [compound 592, 3-[(3-chloro-2-methoxyphenyl)amino]-2-{2-[(2-methyl-1,2,3-triazol-4-yl)amino]pyrimidin-4-yl}-1H,5H,6H,7H-pyrrolo[3,2-c]pyridin-4-one]	< 100 nM	100 to 1000 nM	< 100 nM	< 100 nM	< 100 nM	–	–	–	–	–
COc1c(Cl)cccc1Nc1c(-c2ccncc2)[nH]c2c1C(=O)NC[C@H]2C[C@@H]1CN(C)CCO1 [Compound 645, (7R)-3-[(3-chloro-2-methoxyphenyl)amino]-7-{[(2R)-4-methylmorpholin-2-yl]methyl}-2-(pyridin-4-yl)-1H,5H,6H,7H-pyrrolo[3,2-c]pyridin-4-one]	< 100 nM	> 1000 nM	< 100 nM	< 100 nM	< 100 nM	–	–	–	–	–
COc1c(Cl)cccc1Nc1c(-c2ccnc3[nH]cnc23)[nH]c2c1C(=O)NCC2 [compound 290]	100 to 1000 nM	100 to 1000 nM	–	< 100 nM	< 100 nM	< 100 nM	< 100 nM	< 100 nM	< 100 nM	< 100 nM
